The source of these data is patent publication US20250019387A1 (Frontier Medicines Corporation, priority 0001, published 2025).

The IC50 is the concentration needed to halve the response being measured.

The target in the experiment is KRAS G12C and cRAF (Ras-binding domain) interaction (Homo sapiens (Human), UniProt P01116, C118S/C51S/C80L/G12C). The experiment in a line: Inhibition of KRAS G12C and cRAF binding (AlphaScreen). The settings on record: GMPPNP-loaded KRAS G12C, 19-20 hours incubation with compound; read-out: IC50 (Inhibition of KRAS G12C and cRAF Binding). Put shortly: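 IC50 values come from 4-parameter nonlinear regression of AlphaScreen signal (680 nm excitation, 570 nm emission). Compound plates sat 19-20 h at room temperature before RBD and donor/acceptor beads were added in Hepes pH 7.4 buffer with 150 mM NaCl, 5 mM MgCl2, 2% DMSO for 60-90 min; biotin-AviTag-GST replaced RBD to flag assay-technology interferers.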
Chain of KRAS G12C and cRAF (Ras-binding domain) interaction (P01116 other isoform, or with tags, fused parts or gaps G12C/C51S/C80L/C118S): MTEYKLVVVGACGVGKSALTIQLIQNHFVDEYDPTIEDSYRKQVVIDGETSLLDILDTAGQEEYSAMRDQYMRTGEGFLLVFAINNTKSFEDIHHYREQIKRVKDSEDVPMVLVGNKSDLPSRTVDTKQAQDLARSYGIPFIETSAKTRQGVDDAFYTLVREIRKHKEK
On to `C=CS(=O)(=O)C1CCN(c2nc(OC[C@@H]3CCCN3C)nc3c2CCN(c2cccc4cccc(Cl)c24)C3)C1` (stereo partly drawn) [Example 51, 7-(8-chloronaphthalen-1-yl)-2-(((S)-1-methylpyrrolidin-2-yl)methoxy)-4-(3-(vinylsulfonyl)pyrrolidin-1-yl)-5,6,7,8-tetrahydropyrido[3,4-d]pyrimidine], for which the IC50 was over 500 nM. For `CN(C)C/C=C/S(=O)(=O)CCN(C)c1nc(OC[C@@H]2CCCN2C)nc2c1CCN(c1cccc3cccc(Cl)c13)C2` [Example 52, (S,E)-7-(8-chloronaphthalen-1-yl)-N-(2-((3-(dimethylamino)prop-1-en-1-yl)sulfonyl)ethyl)-N-methyl-2-((1-methylpyrrolidin-2-yl)methoxy)-5,6,7,8-tetrahydropyrido[3,4-d]pyrimidin-4-amine], the IC50 lay in the range of 10 to 100 nM. On to `CN(CCS(=O)(=O)/C=C/CN1CC(F)C1)c1nc(OC[C@@H]2CCCN2C)nc2c1CCN(c1cccc3cccc(Cl)c13)C2` [Example 53, 7-(8-chloro-1-naphthyl)-N-[2-[(E)-3-(3-fluoroazetidin-1-yl)prop-1-enyl]sulfonylethyl]-N-methyl-2-[[(2S)-1-methylpyrrolidin-2-yl]methoxy]-6,8-dihydro-5H-pyrido[3,4-d]pyrimidin-4-amine], for which the IC50 is 100 to 500 nM.

Consider `C/C=C/S(=O)(=O)CCN(C)c1nc(OCC23CCCN2CCC3)nc2c1CCN(c1cccc3cccc(Cl)c13)C2` [Example 54, (E)-7-(8-chloronaphthalen-1-yl)-2-((hexahydro-1H-pyrrolizin-7a-yl)methoxy)-N-methyl-N-(2-(prop-1-en-1-ylsulfonyl)ethyl)-5,6,7,8-tetrahydropyrido[3,4-d]pyrimidin-4-amine], for which the IC50 was 100 to 500 nM.

Regarding `CCN(CC)C/C=C/S(=O)(=O)CCN(C)c1nc(OCC23CCCN2CCC3)nc2c1CCN(c1cccc3cccc(Cl)c13)C2` [Example 55, (E)-7-(8-chloronaphthalen-1-yl)-N-(2-((3-(diethylamino)prop-1-en-1-yl)sulfonyl)ethyl)-2-((hexahydro-1H-pyrrolizin-7a-yl)methoxy)-N-methyl-5,6,7,8-tetrahydropyrido[3,4-d]pyrimidin-4-amine], the IC50 was under 10 nM. In the case of `CN(c1nc(OC[C@@]23CCCN2C[C@H](F)C3)nc2c(F)c(-c3cccc4cccc(Cl)c34)ncc12)[C@H]1CN(C(=O)/C=C/c2nc(C(C)(C)O)no2)C[C@@H]1F` [Example 56, (E)-1-((3S,4S)-3-((7-(8-chloronaphthalen-1-yl)-8-fluoro-2-(((2R,7aS)-2-fluorohexahydro-1H-pyrrolizin-7a-yl)methoxy)pyrido[4,3-d]pyrimidin-4-yl)(methyl)amino)-4-fluoropyrrolidin-1-yl)-3-(3-(2-hydroxypropan-2-yl)-1,2,4-oxadiazol-5-yl)prop-2-en-1-one] it was 10 to 100 nM; in that of `C=CC(=O)N1C[C@H](O)[C@@H](N(C)c2nc(OC[C@@]34CCCN3C[C@H](F)C4)nc3c(F)c(-c4cccc5cccc(Cl)c45)ncc23)C1` [Example 57, 1-((3S,4S)-3-((7-(8-chloronaphthalen-1-yl)-8-fluoro-2-(((2R,7aS)-2-fluorohexahydro-1H-pyrrolizin-7a-yl)methoxy)pyrido[4,3-d]pyrimidin-4-yl)(methyl)amino)-4-hydroxypyrrolidin-1-yl)prop-2-en-1-one], 100 to 500 nM; in that of `CN(c1nc(OC[C@@]23CCCN2C[C@H](F)C3)nc2c(F)c(-c3cccc4cccc(Cl)c34)ncc12)[C@@H]1CCN(C(=O)C#CC2CCNC2)C1` (stereo partly drawn) [Example 58, 1-((R)-3-((7-(8-chloronaphthalen-1-yl)-8-fluoro-2-(((2R,7aS)-2-fluorohexahydro-1H-pyrrolizin-7a-yl)methoxy)pyrido[4,3-d]pyrimidin-4-yl)(methyl)amino)pyrrolidin-1-yl)-3-(pyrrolidin-3-yl)prop-2-yn-1-one], 10 to 100 nM. On to `CN(c1nc(OC[C@@]23CCCN2C[C@H](F)C3)nc2c(F)c(-c3cccc4cccc(Cl)c34)ncc12)[C@@H]1CCN(C(=O)C#CC2CCCN2)C1` (stereo partly drawn) [Example 59, 1-((R)-3-((7-(8-chloronaphthalen-1-yl)-8-fluoro-2-(((2R,7aS)-2-fluorotetrahydro-1H-pyrrolizin-7a(5H)-yl)methoxy)pyrido[4,3-d]pyrimidin-4-yl)(methyl)amino)pyrrolidin-1-yl)-3-(pyrrolidin-2-yl)prop-2-yn-1-one], for which the IC50 is under 10 nM. In the case of `C=CC(=O)N1CC(F)(CN(C)c2nc(OC[C@@]34CCCN3C[C@H](F)C4)nc3c(F)c(-c4cccc5ccc(F)c(Cl)c45)ncc23)C1` [Example 60, 1-(3-(((7-(8-chloro-7-fluoronaphthalen-1-yl)-8-fluoro-2-(((2R,7aS)-2-fluorotetrahydro-1H-pyrrolizin-7a(5H)-yl)methoxy)pyrido[4,3-d]pyrimidin-4-yl)(methyl)amino)methyl)-3-fluoroazetidin-1-yl)prop-2-en-1-one] it was 100 to 500 nM; in that of `CN(c1nc(OCC23CCCN2CCC3)nc2c(F)c(-c3cccc4ccc(F)c(Cl)c34)ncc12)[C@@H]1CCN(C(=O)/C=C/c2nc(C(C)(C)O)no2)C1` [Example 61, (R,E)-1-(3-((7-(8-chloro-7-fluoronaphthalen-1-yl)-8-fluoro-2-((hexahydro-1H-pyrrolizin-7a-yl)methoxy)pyrido[4,3-d]pyrimidin-4-yl)(methyl)amino)pyrrolidin-1-yl)-3-(3-(2-hydroxypropan-2-yl)-1,2,4-oxadiazol-5-yl)prop-2-en-1-one], 10 to 100 nM; in that of `Cc1nccc(/C=C/C(=O)N2CC(CN(C)c3nc(OC[C@@]45CCCN4C[C@H](F)C5)nc4c(F)c(-c5cccc6cccc(Cl)c56)ncc34)C2)n1` [Example 62, (E)-1-(3-(((7-(8-chloronaphthalen-1-yl)-8-fluoro-2-(((2R,7aS)-2-fluorotetrahydro-1H-pyrrolizin-7a(5H)-yl)methoxy)pyrido[4,3-d]pyrimidin-4-yl)(methyl)amino)methyl)azetidin-1-yl)-3-(2-methylpyrimidin-4-yl)prop-2-en-1-one], 10 to 100 nM. In the case of `CN(CC1CN(C(=O)/C=C/c2ccncn2)C1)c1nc(OC[C@@]23CCCN2C[C@H](F)C3)nc2c(F)c(-c3cccc4cccc(Cl)c34)ncc12` [Example 63, (E)-1-(3-(((7-(8-chloronaphthalen-1-yl)-8-fluoro-2-(((2R,7aS)-2-fluorotetrahydro-1H-pyrrolizin-7a(5H)-yl)methoxy)pyrido[4,3-d]pyrimidin-4-yl)(methyl)amino)methyl)azetidin-1-yl)-3-(pyrimidin-4-yl)prop-2-en-1-one], the IC50 fell in the range of 10 to 100 nM.

Regarding `CN(c1nc(OC[C@@]23CCCN2C[C@H](F)C3)nc2c(F)c(-c3cccc4cccc(Cl)c34)ncc12)[C@@H]1CCN(C(=O)C#CC2CNCCO2)C1` (stereo partly drawn) [Example 64, 1-((R)-3-((7-(8-chloronaphthalen-1-yl)-8-fluoro-2-(((2R,7aS)-2-fluorohexahydro-1H-pyrrolizin-7a-yl)methoxy)pyrido[4,3-d]pyrimidin-4-yl)(methyl)amino)pyrrolidin-1-yl)-3-(morpholin-2-yl)prop-2-yn-1-one], the IC50 is under 10 nM. Consider `CN1CCC(C#CC(=O)N2CC[C@@H](N(C)c3nc(OC[C@@]45CCCN4C[C@H](F)C5)nc4c(F)c(-c5cccc6cccc(Cl)c56)ncc34)C2)C1` (stereo partly drawn) [Example 65, 1-((R)-3-((7-(8-chloronaphthalen-1-yl)-8-fluoro-2-(((2R,7aS)-2-fluorohexahydro-1H-pyrrolizin-7a-yl)methoxy)pyrido[4,3-d]pyrimidin-4-yl)(methyl)amino)pyrrolidin-1-yl)-3-(1-methylpyrrolidin-3-yl)prop-2-yn-1-one], for which the IC50 lay in the range of 10 to 100 nM.

On to `CN1CCCC1C#CC(=O)N1CC[C@@H](N(C)c2nc(OC[C@@]34CCCN3C[C@H](F)C4)nc3c(F)c(-c4cccc5cccc(Cl)c45)ncc23)C1` (stereo partly drawn) [Example 66, 1-((R)-3-((7-(8-chloronaphthalen-1-yl)-8-fluoro-2-(((2R,7aS)-2-fluorotetrahydro-1H-pyrrolizin-7a(5H)-yl)methoxy)pyrido[4,3-d]pyrimidin-4-yl)(methyl)amino)pyrrolidin-1-yl)-3-(1-methylpyrrolidin-2-yl)prop-2-yn-1-one], for which the IC50 was in the range of 10 to 100 nM. `CN1CC(C#CC(=O)N2CC[C@@H](N(C)c3nc(OC[C@@]45CCCN4C[C@H](F)C5)nc4c(F)c(-c5cccc6cccc(Cl)c56)ncc34)C2)C1` [Example 67, 1-((R)-3-((7-(8-chloronaphthalen-1-yl)-8-fluoro-2-(((2R,7aS)-2-fluorohexahydro-1H-pyrrolizin-7a-yl)methoxy)pyrido[4,3-d]pyrimidin-4-yl)(methyl)amino)pyrrolidin-1-yl)-3-(1-methylazetidin-3-yl)prop-2-yn-1-one]: the half-inhibitory concentration (IC50) lay within 10 to 100 nM.

Regarding `Cc1nccc(/C=C/C(=O)N2CC(CN(C)c3nc(OC[C@@]45CCCN4C[C@H](F)C5)nc4c(F)c(-c5cccc6ccc(F)c(Cl)c56)ncc34)C2)n1` [Example 68, (E)-1-(3-(((7-(8-chloro-7-fluoronaphthalen-1-yl)-8-fluoro-2-(((2R,7aS)-2-fluorotetrahydro-1H-pyrrolizin-7a(5H)-yl)methoxy)pyrido[4,3-d]pyrimidin-4-yl)(methyl)amino)methyl)azetidin-1-yl)-3-(2-methylpyrimidin-4-yl)prop-2-en-1-one], the half-inhibitory concentration (IC50) was 10 to 100 nM. With `Cc1nccc(/C=C/C(=O)N2CC(CN(C)c3nc(OC[C@@]45CCCN4C[C@H](F)C5)nc4c3CCN(c3cccc5cccc(Cl)c35)C4)C2)n1` [Example 69, (E)-1-(3-(((7-(8-chloronaphthalen-1-yl)-2-(((2R,7aS)-2-fluorohexahydro-1H-pyrrolizin-7a-yl)methoxy)-5,6,7,8-tetrahydropyrido[3,4-d]pyrimidin-4-yl)(methyl)amino)methyl)azetidin-1-yl)-3-(2-methylpyrimidin-4-yl)prop-2-en-1-one], the IC50 was in the range of 100 to 500 nM.
